Assay results from patent US11173177B2, “Compounds for treatment of lipoprotein metabolism disorders” (Aarhus Universitet, priority 2016, dated 2021).
Entries after “also recorded” stand apart in the source; their conditions may differ.

Columns and labels:
PCSK9 [1] = test: BIACORE analysis of PCSK9 binding to heparin-albumin or albumin sensor chips; parameters: species or system human
Method: BIACORE analysis using sensor chips coupled with either albumin (Sigma A4503) or heparin-albumin (Sigma H0403) were used to evaluate the interaction between PCSK9 and heparin. […] An interference assay using BIACORE analysis was implemented to assess the binding between compound (X) and PCSK9. Solutions of 100 nM PCSK9 was incubated with increasing concentrations of compound (X) (0 nM, 10 nM, 100 nM, 1 μM and 10 μM), the solutions were then infused over the sensor chip coupled with heparin-albumin.

LDLR in HepG2 cells [2] = test: LDLR levels in HepG2 cells by Western blotting and densitometry; type: cell-based, human
[3] = oral dose; cited from earlier work
LDLR in HepG2 cells [4] = test: LDLR levels in HepG2 cells by Western blotting and densitometry; type: cell-based, human; details: for cellular LDLR, plateau compared to control: dose-dependent increase
Method: In the heparin mimetic class of modified polysaccharides compounds dextran sulfate (FIG. 9 A-B) and pentosan (FIG. 9 D-E) were tested in a HepG2 based in vitro cell assay. After overnight incubation LDLR levels were evaluated by Western blotting showing a concentration dependent increase of LDLR upon treatment with dextran sulfate (0-200 μg/ml) with up to 3-fold up regulation of LDLR.
Control cells were incubated without additives (negative control) or 500 μg/ml heparin (positive control). LDLR levels were calculated with respect to the level found in lysate of HepG2 cells incubated without additives.
HepG2 cells were incubated with 0-200 μg/ml of heterogeneously sulfated hexamer or 18-mer oligosaccharides containing on average 1,3 sulfates per disaccharide. After over night incubation cells were harvested and the cellular level of LDLR was analyzed by Western blotting (FIG. 17 A) and quantified by densitometry (FIG. 17 B).

PCSK9 [5] = test: Microscale Thermophoresis (MST) binding to PCSK9; parameters: species or system human; details: 100 nM labelled PCSK9, PBS+0.05% Tween-20; for Kd: read-out: KD (affinity for PCSK9, MST)
Method: Equilibrium binding affinities between PCSK9 and ligands (suramin, dextran sulfate 5000, dextran 5000, pentosan sulfate and S-dC-36) were assessed using Microscale Thermophoresis (MST) (Jerabek-Willemsen et al., 2011). PCSK9 was labeled using the MO-L003 Monolith Blue-NHS labeling kit (NanoTemper Technologies) and a labeling efficiency of 1:1 molar ratio of protein to dye was achieved. PCSK9 was applied at a final concentration of 100 nM. The unlabeled binding partner was titrated in 1:1 dilutions (in PBS+0.05% Tween-20) where the highest concentrations were 15.4 mM for suramin, 2.3 mM for dextran sulfate 5000, 2.3 mM for dextran 5000, 16.3 mM for pentosan sulfate and 250 μM for S-dC-36. MST measurements were performed in standard-treated capillaries (NanoTemper Technologies) on a Monolith NT.115 instrument (NanoTemper Technologies) using 20% LED and 80% MST power. Laser on and off times were 5 s and 35 s, respectively. Negative controls were performed using 100 nM of labelled PCSK9 in MST buffer in all 16 capillaries under the same conditions as mentioned above. Binding curves were obtained from the temperature-jump phase at 80% MST power for suramin, dextran sulfate 5000 and S-dC-36; and from the thermophoresis+temperature-jump phase at 80% MST power for pentosan sulfate. For each binding partner, the sigmoidal dose-response curves were fitted with GraphPad Prism 6 to yield an average KD value.

PCSK9 [6] = test: Heparin-sepharose binding assay (free PCSK9 by ELISA); parameters: species or system human; details: 500-250 μg/ml, PCSK9 1 μg/ml, over night 4° C.
Method: Compound (X) inhibition of PCSK9 binding to Heparin/Heparan sulfate was tested in a Heparin-sepharose binding assay. Heparin-sepharose beads (2 μl) were incubated with PCSK9 (1 μg/ml) with increasing concentrations of compound (X) (0-500 μg/ml) in a total volume of 150 μl 10 mM NaH2PO4. After over night rotation at 4° C., beads were pelleted and the concentration of non-precipitated PCSK9 (free PCSK9) in supernatant was evaluated by ELISA. The concentration of free PCSK9 in each sample was normalised to the PCSK9 level in a sample without Heparin-sepharose beads (input control). As positive control was included a sample with soluble heparin (5 mg/ml) (FIG. 16 A).
Sucrose octasulfate (FIG. 21A) inhibition of PCSK9 binding to Heparin/Heparan sulfate was tested in a Heparin-sepharose binding assay. Heparin-sepharose beads (2 μl) were incubated with PCSK9 (1 μg/ml) and increasing concentrations of sucrose octasulfate (0-500 μg/ml) in a total volume of 150 μl 10 mM NaH2PO4. After over night rotation at 4° C., beads were pelleted and the concentration of non-precipitated PCSK9 (free PCSK9) in supernatant was evaluated by ELISA). Percent free PCSK9 was calculated with respect to the PCSK9 concentration in a sample without Heparin-sepharose beads (input control) (FIG. 21B).

HepG2 cells = test: Uptake of Bodipy-labeled LDL particles in HepG2 cells; type: cell-based, human; details: suramin 200 μg/ml overnight, then 4 hours 10 ng/ml Bodipy-LDL
Method: FIG. 12: Bar graphs showing the relative fluorescence signal in HepG2 cells after overnight incubation with suramin (200 μg/ml) following 4 hours incubation with 10 ng/ml LDL particles labeled with fluorescence dye Bodipy. Inhibition of PCSK9 with suramin increases the uptake of LDL two-fold.

liver LDLR = test: Liver LDLR levels in mice after intravenous PCSK9 injection (Western blot); type: in vivo
Method: To test the effect of enzymatic removal of heparan sulfate GAGs on PCSK9 activity in vivo 10-12 week-old male BALB6/cJRj mice were infused with heparinase I (30 U) administered through a tail vein catheter 5 min prior injection of PCSK9 (10 μg). In control mice the heparinase injection and/or the PCSK9 injection were replaced with an injection of 0.9% saline. During heparinase infusion, mice were lightly anaesthetized with isoflurane continuously administered through a mask.
Mice (BALB6/cJRj) were subjected to a single intravenous administration (tail vein) of 10 μg human recombinant PCSK9 alone or in combination with heparin (50 U). One hour post injection mice were sacrificed and liver tissues were collected.
Mice (BALB6/cJRj) were subjected to a single intravenous (tail vein) administration of 3.2 μg compound (X) 60 minutes prior injection with PCSK9 (10 μg). PCSK9 induced degradation of liver LDLR was assessed 60 min post PCSK9 injection by Western blotting and quantified by densitometry (FIG. 16 C). Control mice were injected with NaCl or control inhibitor Evolocumab (200 μg), commercially available PCSK9 inhibitory monoclonal antibody (Amgen). LDLR levels were calculated with respect to LDLR level in mice injected with NaCl alone.

cell surface PCSK9 = test: Surface PCSK9 immunostaining of non-permeabilized HepG2 cells stably expressing PCSK9; type: cell-based, human; details: heparinase I 1 h at 37° C.
Method: We speculated that HSPG might be involved in the capture of PCSK9. Thus, we treated human hepatocyte-derived HepG2 cells stably expressing PCSK9 with heparinase I. The enzyme heparinase I cleaves heparan sulfate GAG chains at the 1,4 O-linkage between uronic acid and N-acetyl-D-glucosamine, thereby removing cell surface heparan sulfate chains.
HepG2 cells stably transfected with PCSK9 were seeded at 50.000 cells per coverslip and incubated overnight before addition of heparinase I (Sigma Aldrich/H2519) in PBS (0,0002 UN/ml) or PBS alone. Cells were incubated for 1 h. at 37° C., before fixation in 4% paraformaldehyd and immunostaining of non-permeabilized cells with primary and secondary antibodies. Nuclei were visualized with Hoechst dye (Sigma Aldrich). Images were acquired on a Zeiss LSM780.

heparin-albumin: heparin-albumin (Sigma H0403) coupled to sensor chip
Kd (PCSK9 [1]; Example 20 text, read-out: affinity constant of PCSK9 binding): 0.0007 µM

phosphorothioate oligodeoxycytidine [S-dC-36]
cellular LDLR levels / PCSK9 inhibitory effect (LDLR in HepG2 cells [2]; 0-5.0 μM, 24 hour): potent inhibitory effects; also recorded: concentration dependent increase in cellular receptor levels

pentosan sulfate
absorption from the digestive tract, median time after ingestion [3]: 2 h
increase in LDLR (LDLR in HepG2 cells [4]; 50-200 μg/ml, 24 hour / overnight): 4 fold
cellular LDLR, plateau compared to control (LDLR in HepG2 cells [4]): around 400%
Kd (PCSK9 [5]): 381 µM

dextran
KD (affinity for PCSK9, MST) (PCSK9 [5]): no affinity for PCSK9

albumin: albumin (Sigma A4503) control sensor chip
PCSK9 binding to control sensor chip (PCSK9 [1]; sensor chip coupled with albumin): no binding was observed

dextran sulfate
up regulation of LDLR (LDLR in HepG2 cells [4]; 0-200 μg/ml, overnight): up to 3 fold
cellular level of LDLR (LDLR in HepG2 cells [4]; 200 μg/ml, 24 hour): potently increase the cellular level of LDLR
cellular LDLR, plateau compared to control (LDLR in HepG2 cells [4]): around 400%
Kd (PCSK9 [5]): 180 µM

O=S(=O)(O)OC[C@H]1O[C@@](COS(=O)(=O)O)(O[C@H]2O[C@H](COS(=O)(=O)O)[C@@H](OS(=O)(=O)O)[C@H](OS(=O)(=O)O)[C@H]2OS(=O)(=O)O)[C@@H](OS(=O)(=O)O)[C@@H]1OS(=O)(=O)O [Sucrose octasulfate]
inhibition of PCSK9 precipitation with Heparin-sepharose (PCSK9 [6]): inhibited PCSK9 precipitation with Heparin-sepharose as well as 5 mg/ml soluble heparin

Cc1ccc(C(=O)Nc2ccc(S(=O)(=O)O)c3cc(S(=O)(=O)O)cc(S(=O)(=O)O)c23)cc1NC(=O)c1cccc(NC(=O)Nc2cccc(C(=O)Nc3cc(C(=O)Nc4ccc(S(=O)(=O)O)c5cc(S(=O)(=O)O)cc(S(=O)(=O)O)c45)ccc3C)c2)c1 [suramin]
uptake of fluorescently labelled LDL particles (HepG2 cells): increased cellular uptake of fluorescently labelled LDL particles; also recorded: two-fold
LDLR level compared with cells incubated with statins (LDLR in HepG2 cells [2]; 100 μM, 24 and 48 hours, vs mevastatin and simvastatin): higher level of LDLR
increase in LDLR (LDLR in HepG2 cells [2]; suramin 0-200 μg/ml, 24 hour): up to fifteen-fold increase in LDLR
level of liver LDLR compared to mice injected with PCSK9 alone (liver LDLR; co-injected with PCSK9 (10 μg), heparin 50 U or suramin 300 μg, 1 hour): significantly higher level of LDLR
Kd (PCSK9 [5]): 190 µM

B1: heparinase I: enzyme that cleaves heparan sulfate GAG chains (Sigma Aldrich/H2519) (protein, UniProt Q05819 22-384, looked up)
Heparin lyase I: QQKKSGNIPYRVNVQADSAKQKAIIDNKWVAVGINKPYALQYDDKLRFNGKPSYRFELKAEDNSLEGYAAGETKGRTELSYSYATTNDFKKFPPSVYQNAQKLKTVYHYGKGICEQGSSRSYTFSVYIPSSFPDNATTIFAQWHGAPSRTLVATPEGEIKTLSIEEFLALYDRMIFKKNIAHDKVEKKDKDGKITYVAGKPNGWKVEQGGYPTLAFGFSKGYFYIKANSDRQWLTDKADRNNANPENSEVMKPYSSEYKTSTIAYKMPFAQFPKDCWITFDVAIDWTKYGKEANTILKPGKLDVMMTYTKNKKPQKAHIVNQQEILIGRNDDDGYYFKFGIYRVGNSTVPVTYNLSGYSETAR
PCSK9 induced degradation of liver LDLR (liver LDLR; heparinase I (30 U) infused 5 min prior PCSK9 (10 μg), 1 hour): completely protected; also recorded: completely inhibits
intensity of surface PCSK9 staining (cell surface PCSK9): marked decrease in the intensity of surface PCSK9 staining

B2: Evolocumab: commercially available PCSK9 inhibitory monoclonal antibody (Amgen) (antibody, chains of the INN, looked up, V domains shown)
VH: EVQLVQSGAEVKKPGASVKVSCKASGYTLTSYGISWVRQAPGQGLEWMGWVSFYNGNTNYAQKLQGRGTMTTDPSTSTAYMELRSLRSDDTAVYYCARGYGMDVWGQGTTVTVSS
VL: ESALTQPASVSGSPGQSITISCTGTSSDVGGYNSVSWYQQHPGKAPKLMIYEVSNRPSGVSNRFSGSKSGNTASLTISGLQAEDEADYYCNSYTSTSMVFGGGTKLTVL
decrease of liver LDLR level after PCSK9 injection (liver LDLR; inhibitor i.v. 60 min prior PCSK9 (10 μg), compound (X) 0.13 mg/kg, Evolocumab 8 mg/kg, PCSK9 without inhibitor: 50% decrease): no decrease was observed
